Reference: patent US4818759A, “Treatment of disease” (priority 1987, dated 1989)
Read-outs that look alike come from different tables or passages of the source.

System: polyarthritis
Experiment: Rat adjuvant arthritis (Freund's adjuvant polyarthritis), global arthritic joint score
Type: in vivo, rats
Settings: po, 384 h, read-out: ED50 (dose that produced a 50% reduction of the average global arthritic joint score relative to a control group)

SMILES | ED50 (rats, in ground meal diet for 14 days from day of sensitization with Freund's adjuvant, evaluated on 16th day after sensitization) [mg/kg] | ED50 [mg/kg]
COc1ccc(OC)c(Cc2cnc3nc(N)nc(N)c3c2C)c1 [2,4-diamino-5-methyl-6-(2,5-dimethoxybenzyl)pyrido[2,3-d]pyrimidine isethionate] | 19 | –
CC(=O)Oc1ccccc1C(=O)O [Aspirin] | – | 102
